Measured values: patent US12391685B2, “Inhibitors of RNA-guided nuclease target binding and uses thereof” (THE BROAD INSTITUTE, INC., priority 2018, dated 2025)
In brackets after ≈: the same amount, converted by molar mass. Entries after “also recorded” stand apart in the source; their conditions may differ.

Assays:
physchem = settings: PBS, aqueous buffer
SpCas9 = SpCas9 (Streptococcus pyogenes serotype M1, UniProt Q99ZW2); type: cell-based, S. pyogenes; parameters: made in house; host or cells: E. coli Rosetta (DE3); settings: not told
Text: FIGS. 8A-8H—Structure-activity analysis and inhibition of dCas9-based transcriptional upregulation. (FIG. 8A) Structure-activity relationship studies of BRD3433 in the eGFP-disruption assay in U2OS.eGFP.PEST cells. The set of functional groups on top represents variation at the 1-N-cap position (R^1) whereas those at the bottom represents the functional group variation at the 8-position (R^2). Bar plot depicts the reduction in the activity of different structural analogs with respect to that of BRD3433. Asterisk-labeled compounds contain a methyl group at the 4-N position, while others have a proton. The data are an average of two biological replicates. (FIG. 8B) Inhibition of dSpCas9-based transcriptional upregulation of HBG1 gene in HEK293FT cells by BRD7087. Cells were transfected with dSpCas9, MS2.p65.HSF1.GFP plasmids along with either RFP or HBG1 gRNA plasmid and incubated in the presence of the small molecules at the indicated concentration for 48 h before RT-qPCR analysis. Data represents average of 6 technical replicates. Y-axis represents % fold change in the compound activity with respect to BRD7087. […] (FIG. 8D) Cellular impermeability of the anti-CRISPR protein AcrllA4 assessed by lack of SpCas9 inhibition in the eGFP-disruptoin assay when AcrLLA4 is incubated in the media. […] (FIG. 8F) Human plasma stability of compound as determined by UPLC/MS in MRM method. […]

SpCas9:DNA interactions = biological target: T1, SpCas9:DNA interactions (Streptococcus pyogenes serotype M1, UniProt Q99ZW2); assay: Differential scanning fluorimetry, disruption of SpCas9-DNA interaction; type: binding, S. pyogenes; settings: SpCas9 1 μM, 8PAM DNA 2 μM, BRD0539 5-20 μM
T1 construct: made in house; host or cells: E. coli Rosetta (DE3)
Protocol: Disruption of SpCas9-DNA interaction by BRD0539. Protein melting experiments were performed in a 384-well format using a 6 μL reaction volume in a LightCycler 480 instrument. For DNA binding assay, 1 μM SpCas9 (1 μM) was incubated with indicated amount of 8PAM DNA (0.25, 0.5, 1, and 2 μM) for 15 min in a 20 mM Tris-HCl buffer (150 mM KCl, 5 mM MgCl2, 1 mM DTT, pH 7.5). For inhibition assay, SpCas9 (1 μM) or SpCas9:gRNA (1 μM) was incubated with indicated amount of either BRD0539 or equivalent amount of DMSO for 15 min in a 20 mM Tris-HCl buffer (150 mM KCl, 5 mM MgCl2, 1 mM DTT, pH 7.5). Next, a 8PAM DNA (2 μM) was added to each of the reaction and incubated for additional 15 min followed by addition of 1 μL of 100×SYPRO® Orange (Invitrogen) before running the melting cycle with a temperature gradient of 4.8° C./min. Experiments were performed in duplicate and data were processed using Roche LightCycler® 480 Protein Melting software.

T1 sequence (Q99ZW2 whole entry): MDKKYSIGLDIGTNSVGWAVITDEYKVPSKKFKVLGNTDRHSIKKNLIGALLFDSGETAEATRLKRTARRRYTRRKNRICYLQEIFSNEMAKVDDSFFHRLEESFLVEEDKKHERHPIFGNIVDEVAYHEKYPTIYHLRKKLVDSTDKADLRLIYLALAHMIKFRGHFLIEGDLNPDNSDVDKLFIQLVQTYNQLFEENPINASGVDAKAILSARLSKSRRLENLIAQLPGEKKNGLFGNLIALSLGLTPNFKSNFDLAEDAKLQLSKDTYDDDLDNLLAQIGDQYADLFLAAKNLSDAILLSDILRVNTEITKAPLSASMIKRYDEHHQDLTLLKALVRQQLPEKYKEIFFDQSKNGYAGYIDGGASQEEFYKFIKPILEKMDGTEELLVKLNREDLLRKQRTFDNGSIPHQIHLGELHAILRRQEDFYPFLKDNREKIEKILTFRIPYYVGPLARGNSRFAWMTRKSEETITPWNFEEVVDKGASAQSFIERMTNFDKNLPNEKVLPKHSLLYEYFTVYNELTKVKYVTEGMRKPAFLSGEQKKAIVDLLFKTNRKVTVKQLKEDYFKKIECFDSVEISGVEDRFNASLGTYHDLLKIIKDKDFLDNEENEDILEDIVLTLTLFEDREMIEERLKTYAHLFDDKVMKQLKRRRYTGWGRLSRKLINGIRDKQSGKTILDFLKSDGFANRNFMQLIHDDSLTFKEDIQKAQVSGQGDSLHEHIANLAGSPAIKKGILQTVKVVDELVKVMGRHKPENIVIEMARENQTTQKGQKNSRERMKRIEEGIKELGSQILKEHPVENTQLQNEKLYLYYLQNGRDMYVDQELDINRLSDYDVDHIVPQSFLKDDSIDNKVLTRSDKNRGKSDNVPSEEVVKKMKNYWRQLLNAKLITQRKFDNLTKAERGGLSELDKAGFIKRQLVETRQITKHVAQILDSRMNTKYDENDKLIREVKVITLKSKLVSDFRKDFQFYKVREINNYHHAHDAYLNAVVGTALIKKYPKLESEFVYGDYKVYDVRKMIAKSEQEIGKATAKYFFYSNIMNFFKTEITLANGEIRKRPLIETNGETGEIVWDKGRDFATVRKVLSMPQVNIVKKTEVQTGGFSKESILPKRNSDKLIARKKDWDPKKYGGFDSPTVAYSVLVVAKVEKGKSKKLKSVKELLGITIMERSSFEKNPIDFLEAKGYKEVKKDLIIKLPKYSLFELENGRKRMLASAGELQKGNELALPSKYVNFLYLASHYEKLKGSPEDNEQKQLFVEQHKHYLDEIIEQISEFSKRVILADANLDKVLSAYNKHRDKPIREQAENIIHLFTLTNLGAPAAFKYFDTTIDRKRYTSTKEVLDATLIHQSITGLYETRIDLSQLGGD
Chain of SpCas9 (Q99ZW2 whole entry): as above

SMILES	solubility at 24 h (physchem)	cell permeability (in words) (SpCas9)	effect on formation of the DNA-bound state of SpCas9 (in words) (SpCas9:DNA interactions)
OC[C@H]1Nc2ccc(-c3cccc(F)c3)cc2[C@H]2[C@@H]1CCN2Cc1ccncc1 [BRD7087, ((3aR,4S,9bR)-8-(3-Fluorophenyl)-1-(pyridin-4-ylmethyl)-2,3,3a,4,5,9b-hexahydro-1H-pyrrolo[3,2-c]quinolin-4-yl) methanol]	75 µM (≈ 29.2 µg/mL)		
Cc1ccc(S(=O)(=O)N2CC[C@@H]3[C@H](CO)Nc4ccc(-c5ccccc5F)cc4[C@@H]32)cc1 [BRD0539, ((3aR,4R,9bR)-8-(2-fluorophenyl)-1-tosyl-2,3,3a,4,5,9b-hexahydro-1H-pyrrolo[3,2-c]quinolin-4-yl) methanol]		cell permeable	dose-dependently blocked the formation of the DNA bound state; also recorded: dose-dependently blocked the formation of the DNA-bound state
